Laboratory results taken from patent US6706663B2, “Herbicidal 3-heterocyclic substituted benzisothiazole and benzisoxazole compounds” (Wyeth, priority 2000, dated 2004).

How the values were obtained:
[1] = tested on: ECHCG (Echinochloa crus-galli); experiment: Postemergence herbicidal evaluation; assay type: in vivo, (L.) Beau; conditions: postemergence
Summary of the method: (§1)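 Seedlings grown for about two weeks were sprayed postemergence and then kept under standard greenhouse care. Injury was rated visually 4–5 weeks after treatment on a 0–9 scale against untreated controls, and ratings from repeat tests were averaged.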

SETVI (Setaria viridis) = experiment: Postemergence herbicidal evaluation; assay type: in vivo, (L.) Beau; conditions: postemergence
Summary of the method: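 Seedlings grown about two weeks were sprayed with compound in 50/50 acetone/water containing 0.5% TWEEN 20, at about 0.0040 to 1.000 kg/ha via nozzle at 40 psi. Plants were kept under greenhouse conditions and visually rated on a 0-9 scale versus control four to five weeks after treatment; replicate tests averaged.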

[2] = tested on: TRZAWR (Wheat, Winter, cv Riband); experiment: Postemergence herbicidal evaluation; assay type: in vivo, Triticum aestivum; conditions: postemergence
Summary of the method: as §1

[3] = tested on: ABUTH (Abutilon theophrasti); experiment: Preemergence herbicidal evaluation; assay type: in vivo, Medic.; conditions: rated 4-5 weeks after treatment
[4] = tested on: AMBEL (Ambrosia artemisifolia); experiment: Preemergence herbicidal evaluation; assay type: in vivo, L.; conditions: rated 4-5 weeks after treatment
Summary of the method: (§2)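 Greenhouse preemergence test: freshly planted cups were sprayed once with an aqueous acetone solution of compound. Injury was judged visually on a 0–9 scale relative to a control, four to five weeks later.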

[5] = tested on: CASOB (Cassia obtusifolia); experiment: Preemergence herbicidal evaluation; assay type: in vivo, L.; conditions: rated 4-5 weeks after treatment
Summary of the method: as §2

[6] = tested on: CHEAL (Chenopodium album); experiment: Preemergence herbicidal evaluation; assay type: in vivo, L.; conditions: rated 4-5 weeks after treatment
Summary of the method: as §2

[7] = tested on: IPOHE (Ipomoea hederacea); experiment: Preemergence herbicidal evaluation; assay type: in vivo, (L.) Jacq.; conditions: rated 4-5 weeks after treatment
[8] = tested on: GLXMAW (Soybean, Williams); experiment: Preemergence herbicidal evaluation; assay type: in vivo, Glycine max, (L.) Merr. cv Williams; conditions: rated 4-5 weeks after treatment
ZEAMX (Corn, Field) = experiment: Preemergence herbicidal evaluation; assay type: in vivo, Zea mays, L.; conditions: rated 4-5 weeks after treatment
[9] = tested on: ECHORC (Echinochloa oryzoides); experiment: Flooded paddy, preemergence weed control; assay type: in vivo, Echinochloa oryzoides (Ard.) Fritsch.; conditions: rated 3-4 weeks after treatment, 0-9 rating scale
Summary of the method: (§3)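 Preemergence, flooded: propagules planted at 0.5 cm depth in silt loam, water level maintained at 1.5 to 3 cm over soil, containers kept on greenhouse benches. Activity scored 0-9 by eye relative to a control plant.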

CYPIR (Cyperus iria) = experiment: Flooded paddy, preemergence weed control; assay type: in vivo; conditions: rated 3-4 weeks after treatment, 0-9 rating scale
Summary of the method: as §3

[10] = tested on: CYPSE (Cyperus serotinus); experiment: Flooded paddy, preemergence weed control; assay type: in vivo, Rottb.; conditions: rated 3-4 weeks after treatment, 0-9 rating scale
Summary of the method: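 Seeds or propagules were planted 0.5 cm deep in silt loam and flooded to 1.5–3 cm. Compounds in 50/50 v/v aqueous/acetone were pipetted into the flood water at about 0.0080 to 0.1250 kg/ha. After 3–4 weeks in the greenhouse, effect was rated visually on a 0–9 scale versus untreated control.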

[11] = tested on: MOOVA (Monochoria vaginalis); experiment: Flooded paddy, preemergence weed control; assay type: in vivo, Presl.; conditions: rated 3-4 weeks after treatment, 0-9 rating scale
Summary of the method: as §3

[12] = tested on: SAGPY (Sagittaria pygmaea); experiment: Flooded paddy, preemergence weed control; assay type: in vivo, L.; conditions: rated 3-4 weeks after treatment, 0-9 rating scale
Summary of the method: as §3

ORYSAT (Rice, Tebonnet) = experiment: Flooded paddy, post-transplant rice tolerance; assay type: in vivo, Oryza sativa, (L.) Tebonnet; conditions: flooded paddy, post-transplant rice, rated 3-4 weeks after treatment, 0-9 rating scale
Summary of the method: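 Ten-day-old seedlings, 2/pot, silt loam; flood kept 1.5–3 cm over soil; herbicide applied post-transplant; greenhouse; score 0–9 visual vs control.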

Cn1c(C(F)(F)F)cc(=O)n(-c2ccc3snc(C4OC(C)(C)C(C)(C)O4)c3c2)c1=O [Compound 56, 1-methyl-3-[3-(4,4,5,5-tetramethyl-1,3-dioxolan-2-yl)-1,2-benzisothiazol-5-yl]-6-(trifluoromethyl)uracil]
6.3: herbicidal rating, SAGPY ([12]; rate 0.1250 kg/ha)
6.0: herbicidal rating, CYPIR (CYPIR (Cyperus iria); rate 0.0080 kg/ha)
1.0: herbicidal rating, ORYSAT (rice tolerance) (ORYSAT (Rice, Tebonnet); rate 0.0080 kg/ha)
5.5: Preemergence herbicidal rating CASOB ([5]; Rate 0.1250 kg/ha) | herbicidal rating, CYPSE ([10]; rate 0.0320 kg/ha)
0.0: herbicidal rating, CYPSE ([10]; rate 0.0080 kg/ha) | herbicidal rating, SAGPY ([12]; rate 0.0080 kg/ha) | herbicidal rating, SAGPY ([12]; rate 0.0320 kg/ha)
2.0: ECHCG herbicidal rating ([1]; rate 0.0320 kg/ha) | SETVI herbicidal rating (SETVI (Setaria viridis); rate 0.0320 kg/ha)
7.5: Preemergence herbicidal rating IPOHE ([7]; Rate 0.0620 kg/ha) | Preemergence herbicidal rating IPOHE ([7]; Rate 0.1250 kg/ha) | Preemergence herbicidal rating GLXMAW ([8]; Rate 0.0620 kg/ha)
4.3: herbicidal rating, ORYSAT (rice tolerance) (ORYSAT (Rice, Tebonnet); rate 0.0320 kg/ha)
8.0: Preemergence herbicidal rating ZEAMX (ZEAMX (Corn, Field); Rate 0.2500 kg/ha) | herbicidal rating, CYPIR (CYPIR (Cyperus iria); rate 0.0320 kg/ha) | herbicidal rating, ORYSAT (rice tolerance) (ORYSAT (Rice, Tebonnet); rate 0.1250 kg/ha)
4.5: TRZAWR herbicidal rating ([2]; rate 0.0620 kg/ha) | Preemergence herbicidal rating CASOB ([5]; Rate 0.0620 kg/ha)
3.5: TRZAWR herbicidal rating ([2]; rate 0.0320 kg/ha)
4.0: ECHCG herbicidal rating ([1]; rate 0.0620 kg/ha) | SETVI herbicidal rating (SETVI (Setaria viridis); rate 0.0620 kg/ha)
7.0: Preemergence herbicidal rating ZEAMX (ZEAMX (Corn, Field); Rate 0.0620 kg/ha) | Preemergence herbicidal rating ZEAMX (ZEAMX (Corn, Field); Rate 0.1250 kg/ha)
9.0: Preemergence herbicidal rating ABUTH ([3]; Rate 0.0620 kg/ha) | Preemergence herbicidal rating ABUTH ([3]; Rate 0.1250 kg/ha) | Preemergence herbicidal rating ABUTH ([3]; Rate 0.2500 kg/ha) | Preemergence herbicidal rating AMBEL ([4]; Rate 0.0620 kg/ha) | Preemergence herbicidal rating AMBEL ([4]; Rate 0.1250 kg/ha) | Preemergence herbicidal rating AMBEL ([4]; Rate 0.2500 kg/ha) | Preemergence herbicidal rating CASOB ([5]; Rate 0.2500 kg/ha) | Preemergence herbicidal rating CHEAL ([6]; Rate 0.0620 kg/ha) | Preemergence herbicidal rating CHEAL ([6]; Rate 0.1250 kg/ha) | Preemergence herbicidal rating CHEAL ([6]; Rate 0.2500 kg/ha) | Preemergence herbicidal rating IPOHE ([7]; Rate 0.2500 kg/ha) | Preemergence herbicidal rating GLXMAW ([8]; Rate 0.1250 kg/ha) | Preemergence herbicidal rating GLXMAW ([8]; Rate 0.2500 kg/ha) | herbicidal rating, ECHORC ([9]; rate 0.0080 kg/ha) | herbicidal rating, ECHORC ([9]; rate 0.0320 kg/ha) | herbicidal rating, ECHORC ([9]; rate 0.1250 kg/ha) | herbicidal rating, CYPIR (CYPIR (Cyperus iria); rate 0.1250 kg/ha) | herbicidal rating, CYPSE ([10]; rate 0.1250 kg/ha) | herbicidal rating, MOOVA ([11]; rate 0.0080 kg/ha) | herbicidal rating, MOOVA ([11]; rate 0.0320 kg/ha) | herbicidal rating, MOOVA ([11]; rate 0.1250 kg/ha)

CC1COC(c2nsc3ccc(-n4c(=O)cc(C(F)(F)F)n(C)c4=O)cc23)O1 (stereo not shown) [Compound 57, 1-methyl-3-[3-(4-methyl-1,3-dioxolan-2-yl)-1,2-benzisothiazol-5-yl]-6-(trifluoromethyl)uracil]
0.0: herbicidal rating, CYPIR (CYPIR (Cyperus iria); rate 0.0080 kg/ha) | herbicidal rating, SAGPY ([12]; rate 0.0080 kg/ha)
5.0: TRZAWR herbicidal rating ([2]; rate 0.0620 kg/ha) | herbicidal rating, ECHORC ([9]; rate 0.0080 kg/ha)
9.0: SETVI herbicidal rating (SETVI (Setaria viridis); rate 0.0620 kg/ha) | Preemergence herbicidal rating ABUTH ([3]; Rate 0.0620 kg/ha) | Preemergence herbicidal rating ABUTH ([3]; Rate 0.1250 kg/ha) | Preemergence herbicidal rating ABUTH ([3]; Rate 0.2500 kg/ha) | Preemergence herbicidal rating AMBEL ([4]; Rate 0.0620 kg/ha) | Preemergence herbicidal rating AMBEL ([4]; Rate 0.1250 kg/ha) | Preemergence herbicidal rating AMBEL ([4]; Rate 0.2500 kg/ha) | Preemergence herbicidal rating CASOB ([5]; Rate 0.2500 kg/ha) | Preemergence herbicidal rating CHEAL ([6]; Rate 0.0620 kg/ha) | Preemergence herbicidal rating CHEAL ([6]; Rate 0.1250 kg/ha) | Preemergence herbicidal rating CHEAL ([6]; Rate 0.2500 kg/ha) | Preemergence herbicidal rating IPOHE ([7]; Rate 0.0620 kg/ha) | Preemergence herbicidal rating IPOHE ([7]; Rate 0.1250 kg/ha) | Preemergence herbicidal rating IPOHE ([7]; Rate 0.2500 kg/ha) | Preemergence herbicidal rating GLXMAW ([8]; Rate 0.0620 kg/ha) | Preemergence herbicidal rating GLXMAW ([8]; Rate 0.1250 kg/ha) | Preemergence herbicidal rating GLXMAW ([8]; Rate 0.2500 kg/ha) | Preemergence herbicidal rating ZEAMX (ZEAMX (Corn, Field); Rate 0.2500 kg/ha) | herbicidal rating, ECHORC ([9]; rate 0.1250 kg/ha) | herbicidal rating, CYPIR (CYPIR (Cyperus iria); rate 0.1250 kg/ha) | herbicidal rating, CYPSE ([10]; rate 0.0320 kg/ha) | herbicidal rating, CYPSE ([10]; rate 0.1250 kg/ha) | herbicidal rating, MOOVA ([11]; rate 0.0320 kg/ha) | herbicidal rating, MOOVA ([11]; rate 0.1250 kg/ha) | herbicidal rating, ORYSAT (rice tolerance) (ORYSAT (Rice, Tebonnet); rate 0.1250 kg/ha)
4.5: TRZAWR herbicidal rating ([2]; rate 0.0320 kg/ha) | herbicidal rating, SAGPY ([12]; rate 0.0320 kg/ha)
5.5: Preemergence herbicidal rating CASOB ([5]; Rate 0.0620 kg/ha)
7.5: Preemergence herbicidal rating CASOB ([5]; Rate 0.1250 kg/ha) | Preemergence herbicidal rating ZEAMX (ZEAMX (Corn, Field); Rate 0.0620 kg/ha) | herbicidal rating, CYPIR (CYPIR (Cyperus iria); rate 0.0320 kg/ha) | herbicidal rating, SAGPY ([12]; rate 0.1250 kg/ha)
8.0: Preemergence herbicidal rating ZEAMX (ZEAMX (Corn, Field); Rate 0.1250 kg/ha) | herbicidal rating, ECHORC ([9]; rate 0.0320 kg/ha) | herbicidal rating, ORYSAT (rice tolerance) (ORYSAT (Rice, Tebonnet); rate 0.0320 kg/ha)
4.0: SETVI herbicidal rating (SETVI (Setaria viridis); rate 0.0320 kg/ha)
3.0: ECHCG herbicidal rating ([1]; rate 0.0320 kg/ha) | ECHCG herbicidal rating ([1]; rate 0.0620 kg/ha) | herbicidal rating, ORYSAT (rice tolerance) (ORYSAT (Rice, Tebonnet); rate 0.0080 kg/ha)
